Source: patent US20240343835A1, “COVALENT HETEROBIVALENT ANTIBODY INHIBITORS AND LIGANDS” (UNIVERSITY OF NOTRE DAME DU LAC, priority 2015, published 2024)
Each block holds one molecule with its values, some of them ahead of it. Ends that are not written are not given here.

Key:
[1] = molecular target: nucleotide binding site (NBS) of IgEs; experiment: Fluorescence quenching binding of NBS ligand; details: monovalent affinity
IgE^dansyl = experiment: Fluorescence quenching binding of dansyl molecules to IgE^dansyl; details: dissociation constants for hapten-Napht conjugates
Protocol: To determine binding of HBI molecules to respective antibodies, we observed the quenching of tryptophan resides using a method previously described (Junutula JR, et al., Nat. Biotechnol. 2008; 26 (8): 925-932). Briefly, either IgE^dansyl or IgG^Penicillin was diluted into a non-binding 96-well dish at 40 nM in PBS. Then, HBI molecules which contained either a dansyl or DNP group were titrated into well and fluorescence (Ex. 280 nm, Em. 335) was observed using a SpectraMax M2 spectrophotometer. PBS and free tryptamine diluted to similar initial fluorescence values were used as controls to account for HBI fluorescence and non-specific quenching respectively.

trastuzumab [2] = experiment: Fluorescence quenching assay with trastuzumab; format: binding; details: for Kd: fluorescence quenching, DNP-tagged ligands
Protocol: The binding constants (Kd) of monovalent ABS (trastuzumab binding peptide), NBS (naphthalene), and heterobivalent ligand (trast-napht) were determined using fluorescence quenching assay as previously described (Handlogten MW, et al., Chem Biol. 2011; 18 (9): 1179-1188). Briefly, ligands were titrated into trastuzumab (30 nM) as well as PBS and Indole-3-butyric acid (IBA) to exclude the effect of nonspecific interactions between DNP and tryptophan. Since DNP absorbs light at 335 nm and tryptophan emits light at 335 nm, the fluorescence of tryptophan is quenched by DNP. The fluorescence of tryptophan was read by SpectraMax M5 plate reader (Molecular Devices) at λex=280 nm and λem=335 nm with various concentrations of ligands. The fluorescence signals dropped upon titration of ligands and apparent binding constants were calculated using a Hill's curve fit in OriginPro 2015.

trastuzumab [3] = experiment: Direct ELISA for selective binding of cHBL to trastuzumab; details: 8 hours, 37° C., pH 7.4
Protocol: ELISA was used to confirm selective binding of trast-cHBL to trastuzumab. […] FITC also reacted with trastuzumab at the same conditions except for pH; they were incubated in either PBS or carbonate-bicarbonate buffer. Trastuzumab without any covalent ligands was used as a negative control (pH 7.4). After an 8-hour reaction, all molecules were purified using Amicon Ultra-0.5 mL Centrifugal Filters to remove the unbound covalent ligands. Concentration of trastuzumab was determined by SpectraMax M5 plate reader. For ELISA, 96 well high-binding assay plate was coated with trastuzumab (0.5 nM in carbonate-bicarbonate buffer) overnight at 4° C. refrigerator. The next morning, the wells were washed with a washing buffer (0.05% Tween 20 in PBS) using AquaMax 2000 plate automatic washer (Molecular Devices) to remove unbound trastuzumab and blocked with blocking buffer (5% (w/v) BSA and 0.1% (v/v) Tween 20 in PBS) for 1 hour at room temperature. After 1 hour, the wells were washed and then incubated with goat anti-FITC IgG-HRP conjugate (1:20,000 in blocking buffer) for 1 hour. Amplex Red Hydrogen Peroxide/Peroxidase Assay kit was used to initiate enzymatic reaction and the fluorescence (λex=570 nm and λem=592 nm) was read by SpectraMax M5 plate reader.

trastuzumab [4] = experiment: Western blot of ITC covalent conjugation to trastuzumab chains; format: biochemical; details: reducing gel
Protocol: ITC conjugation to active lysine on either light chain […] proximal to NBS was confirmed by western blot as previously described (Alves NJ, et al., Langmuir. 2012; 28 (25): 9640-9648). The samples (20 nM in 1×SDS reducing buffer) were run on a 10% SDS-PAGE gel at 110 V for 50 min in the presence of a Tris-glycine running buffer. The samples were then transferred to a nitrocellulose membrane (Bio-Rad) at 90 V for 90 min in a 20% methanol transfer buffer. The membrane was blocked with a blocking buffer (5% (w/v) non-fat dry milk in Tris buffered Saline with 0.05% Tween 20 (TBS-T)) for 1 hour. After 1 hour, the membrane was washed once with TBS-T and followed by incubation with HRP-conjugated goat anti-FITC IgG (1:20,000 in blocking buffer) for 45 min. The membrane was washed with 3×TBS-T for 10 min to remove the unbound secondary detection antibodies and subsequently incubated with chemiluminescent HRP substrate for 5 min to detect the location at which lysine on either heavy or light chain is conjugated to cHBL molecules. A second SDS-PAGE gel was run concurrently and stained in Commassie blue staining solution (0.15% Coomassie R-250 (EMD chemicals), 10% acetic acid and 20% methanol in DI water) and destained in destaining solution (10% acetic acid, methanol, and 80% DI water) to confirm that all the proteins were transferred to the membrane. […]

[5] = system: HER2/neu receptor on BT474 cells; experiment: Cellular binding assay by flow cytometry with cHBL-tagged trastuzumab; format: cell-based
Protocol: Inhibition of trastuzumab by binding of trast-cHBL was confirmed by cellular binding assay with HER2-overexpressed breast and ovarian cancer cell lines (BT474 and SKOV3) using a Guava EasyCyte 8HT flow cytometer (Millipore). 0.5 mL of 50000 cells/mL were cultured on 2-well tissue culture plates overnight. The plate was kept on ice for 30 min to avoid receptor internalization. The wells were washed with a blocking buffer (1.5% BSA in PBS) and incubated with trastuzumab that had been previously incubated with trast-cHBL at various concentrations in the same fashion as the ELISA experiments for 1 hour on ice. The wells were washed once and incubated with Alexa Fluor 647-conjugated goat anti-human IgG (1:500 in blocking buffer) for 1 hour on ice. The wells were washed once with blocking buffer and the cells were gently scraped to run flow cytometer. Green (FITC) and Red2 (Alexa fluorophore with λem=667 nm) fluorescence were read to confirm trast-cHBL binding. Trastuzumab without any ligands and trastuzumab—FITC conjugate were used as positive controls and the cells with Alexa Flour 647-conjugated secondary antibody and without trastuzumab were used as negative controls.

NBS of trastuzumab = experiment: Competitive ELISA of naphthalene-biotin binding to the NBS; details: 2 and 10 μM, p<0.01
Protocol: The specificity of naphthalene to NBS of IgG was confirmed using UV photo-cross-linking method and competitive sandwich ELISA. The wells of high binding plate were coated with goat-derived anti-human IgGs (1 nM in carbonate-bicarbonate buffer) overnight at 4° C. Trastuzumab (100 nM in PBS) prepared for ELISA described above was incubated with naphthalene-EG11-biotin (25 μM in PBS) for 1 hour at room temperature. PBS with only naphthalene-EG11-biotin was used as a negative control to normalize the binding curve. After 1 hour incubation, the molecules were exposed to UV light (1 J/cm^2) in a Spectroline UV select Series Cross-linker (Spectronics) to induce covalent photo-cross-linking of naphthalene to unbound NBS. The molecules were spun and 2 nM of the molecules were prepared in the blocking buffer. The wells coated with goat anti-human IgGs were washed and blocked with the blocking buffer for 1 hour. The wells were washed followed by incubation with the UV photo-cross-linked trastuzumab (2 nM) for 1 hour. […] An Amplex red assay kit was used to detect the fluorescence signals from the specific binding of naphthalene to NBS induced by UV photo-cross-linking. Since cHBL contains naphthalene, blocked NBS of trastuzumab is expected not to be photo-cross-linked to naphthalene-EGn-biotin, leading to relatively lower signals of fluorescence in the presence of cHBL.

Molecule: O=C(O)Cc1ccc2ccccc2c1 [2-naphteleneacetic acid]
- Kd [1]: 1800 ± 300 nM
- Kd ([1]; listed as 2-naphthaleneacetic acid): 2000 nM

Molecule: Dansyl
- Kd (IgE^dansyl): 29.9 ± 10 nM

Molecule: Rituximab-cHBL: orthogonal cHBL with rituximab binding peptide WPRWLEN
- binding to trastuzumab (direct ELISA) (trastuzumab [3]): not selective to trastuzumab up to 20 μM

Molecule: Trast-DNP: trastuzumab binding peptide tagged with DNP (LLGPYELWELSH; also: tagged with DNP)
- Kd (trastuzumab [2]): 200 ± 14 nM

Molecule: Trast-ITC: trast-cHBL molecule where the napht moiety was omitted (LLGPYELWELSH)
- antibody chain conjugated (trastuzumab [4]): conjugated nearly equally to either heavy (50 kDa) or light chain

Molecule: Trast-Napht-DNP: trastuzumab binding peptide conjugated to napht with ethylene glycol spacer, DNP tagged (LLGPYELWELSH; also: conjugated to napht with ethylene glycol spacer, DNP tagged)
- Kd (trastuzumab [2]): 46 ± 6 nM
- Kd (trastuzumab [2]; listed as Trast-napht-DNP): 46.6 ± 6 nM
- fold increase in observed affinity on conjugation to napht (trastuzumab [2]; napht with ethylene glycol spacer): over 4 fold

Further lines, with some results ahead:

- Kd (trastuzumab [2]): 200 ± 14 nM
Molecule: LLGPYELWELSH [Trastuzumab binding peptide, reference compound]

- naphthalene-biotin binding after cHBL incubation (NBS of trastuzumab): significantly less naphthalene binding
Molecule: Trast-cHBL: trastuzumab-specific cHBL with peptide LLGPYELWELSH, napht, ITC and fluorescein tag (not fully specified; also: cHBL with napht, ITC and fluorescein tag)
- antibody chain conjugated (trastuzumab [4]): preferentially conjugated to light chain
- binding to trastuzumab (direct ELISA) (trastuzumab [3]): significant increase in binding over trastuzumab-ITC at 1 μM
- cHBL concentration at which FITC signal saturates [5]: 2 µM
- FITC signal, percent of maximum ([5]; 1 μM cHBL): approximately 50%
- HER2 binding (Alexa 647 signal) ([5]; 1 μM cHBL): no significant reduction in HER2 binding
- HER2 binding retained (Alexa 647 signal) ([5]; 2 μM cHBL): approximately 75%
- HER2 binding (Alexa 647 signal) ([5]; 10 μM cHBL): HER2 binding drops drastically
